This note sets out measurements from patent publication US20230027929A1, “MrgprX2 Antagonists and Uses Thereof” (Dermira, Inc., priority 2019, published 2023).

The target in this test is T1, hMrgpMRGPRX2 (Homo sapiens, UniProt Q96LB1).
T1 construct: expressed in transfected cells
T1 sequence (Q96LB1 1-330): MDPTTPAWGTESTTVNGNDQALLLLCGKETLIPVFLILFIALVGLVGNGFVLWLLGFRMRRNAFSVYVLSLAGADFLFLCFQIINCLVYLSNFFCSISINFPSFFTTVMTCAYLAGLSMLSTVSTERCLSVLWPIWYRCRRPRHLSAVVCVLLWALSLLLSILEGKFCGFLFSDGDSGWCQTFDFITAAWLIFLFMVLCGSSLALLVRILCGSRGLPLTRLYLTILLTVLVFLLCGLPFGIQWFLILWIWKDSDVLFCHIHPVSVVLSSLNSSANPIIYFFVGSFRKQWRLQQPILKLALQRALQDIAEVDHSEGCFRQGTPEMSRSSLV
Description: FLIPR intracellular calcium mobilization, antagonist activity in recombinant hMrgpMRGPRX2 expressing cells. Format: cell-based. Conditions: read-out: Human MrgprX2 Antagonist pIC50 (converted). From the text:
Potent and selective hMrgpMRGPRX2 compounds have been generated from compounds identified during a high throughput screening (HTS) campaign and followed up with cycles of structure activity based medicinal chemistry efforts. These compounds were characterized in recombinant hMrgpMRGPRX2 expressing cells for their antagonist activity and the potency was confirmed in the human mast cell line LAD-2, where the target is endogenously expressed. The assays used to determine potencies are functional read-out looking at intracellular calcium mobilization using the FLIPR™ technology. In these FLIPR assays, we test the identified compounds using recombinant cellular systems expressing mouse MrgprB2, mouse MrgprA1, gerbil MrgpMRGPRX2 orthologue, Chinese hamster MrgpMRGPRX2 orthologue and cynomolgus monkey MrgpMRGPRX2 orthologue, respectively for orthologue activity.
On to `CC1(C)CC1C(=O)Nc1ccc(Oc2ccnc(F)c2)cn1` (stereo not drawn) [Compound E072], for which the IC50 was 1910 nM.
Next, `Cn1cc(Oc2ccc(NC(=O)C3C(C)(C)C3(C)C)nc2)cn1` [Compound E073]: 3.63 nM; `CC1(C)C(C(=O)Nc2ccc(Oc3cn[nH]c3)cn2)C1(C)C` [Compound E074]: 257 nM.
Next, `CC1(C)C(C(=O)Nc2ccc(Oc3cc(F)cc(C(N)=O)c3)cn2)C1(C)C` [Compound E075]: 501 nM.
The value for `CC1(C)C(C(=O)Nc2ccc(Oc3ccc(C(N)=O)nc3)cn2)C1(C)C` [Compound E076] was 1260 nM.
`CNc1ccc(NC(=O)C2C(C)(C)C2(C)C)nc1` [Compound E079, 2,2,3,3-tetramethyl-N-[5-(methylamino)-2-pyridyl]cyclopropanecarboxamide]: the IC50 is 1660 nM.
With `CC(C)(O)COc1ccc(NC(=O)C2C(C)(C)C2(C)C)nc1` [Compound E080, N-[5-(2-hydroxy-2-methyl-propoxy)-2-pyridyl]-2,2,3,3-tetramethyl-cyclopropanecarboxamide], the IC50 is 4370 nM.
Next, `CC(C)C(=O)Nc1ccc(N2CCCC2)cn1` [Compound E081, 2-methyl-N-(5-pyrrolidin-1-yl-2-pyridyl)propanamide]: 3980 nM; `CC1(C)C(C(=O)Nc2ccc(OCCO)cn2)C1(C)C` [Compound E082, N[5-(2-hydroxyethoxy)pyridin-2-yl]-2,2,3,3-tetramethylcyclopropane-l-carboxamide]: 4370 nM; `CC1(C)C(C(=O)Nc2ccc(OC3COC3)cn2)C1(C)C` [Compound E083]: 1070 nM.
The value for `CC(C)C(=O)Nc1ccc(OC2CCCC2)cn1` [Compound E084] was 1580 nM; that for `CC1(C)C(C(=O)Nc2ccc(OC3CCOCC3)cn2)C1(C)C` [Compound E085] was 1000 nM; that for `CC1(C)C(C(=O)Nc2ccc(OCc3cncc(F)c3)cn2)C1(C)C` [Compound E086] was 204 nM.
Next, `CC1(C)C(C(=O)Nc2ccc(-n3cc(F)cn3)cn2)C1(C)C` [Compound E087]: 43.7 nM; `CC1(C)C(C(=O)Nc2ccc(-n3ccc(C#N)n3)cn2)C1(C)C` [Compound E088]: 28.2 nM; `CC1(C)C(C(=O)Nc2ccc(-n3nccn3)cn2)C1(C)C` [Compound E089]: 15.1 nM.
On to `CC1(C)C(C(=O)Nc2ccc(-n3ccnn3)cn2)C1(C)C` [Compound E090], for which the IC50 is 3390 nM.
For the molecule `CC1(C)C(C(=O)Nc2ccc(-n3ccc(F)n3)cn2)C1(C)C` [Compound E091], the IC50 is 8.13 nM.
Next, `CC1(C)C(C(=O)Nc2ccc(-n3cncn3)cn2)C1(C)C` [Compound E092]: 8130 nM.
Next, `CC1(C)C(C(=O)Nc2ccc(OCC(F)(F)F)cn2)C1(C)C` [Compound E093, 2,2,3,3-tetramethyl-N-[5-(2,2,2-trifluoroethoxy)-2-pyridyl]cyclopropanecarboxamide]: 31.6 nM.
Next, `CC(C)C(=O)Nc1ccc(Nc2ccccc2)cn1` [Compound E094, N-(5-anilino-2-pyridyl)-2-methyl-propanamide]: 3980 nM; `CC(C)C(=O)Nc1ccc(N2CCc3ccccc32)cn1` [Compound E095, N-(5-indolin-1-yl-2-pyridyl)-2-methyl-propanamide]: 3980 nM; `CC(C)C(=O)Nc1ccc(N(C)c2ccccc2)cn1` [Compound E096, 2-methyl-N-[5-(N-methylanilino)-2-pyridyl]propanamide]: 2510 nM.
Regarding `CC1(C)C(C(=O)Nc2ccc(N3CCCC3)cn2)C1(C)C` [Compound E097], the IC50 was 2.51 nM.
Next, `CC1(C)CC1C(=O)Nc1ccc(N2CCCC2)cn1` (stereo not drawn) [Compound E098]: 87.1 nM.
The value for `CC1(C)C(C(=O)Nc2ccc(N3CCC(F)C3)cn2)C1(C)C` (stereo not drawn) [Compound E099] was 25.1 nM; that for `CC1(C)C(C(=O)Nc2ccc(N3CCC(F)(F)C3)cn2)C1(C)C` [Compound E100] was 34.7 nM; that for `CC1(C)C(C(=O)Nc2ccc(Nc3cncc(F)c3)cn2)C1(C)C` [Compound E101] was 912 nM.
As for `CCN(C[C@@H](O)C(F)(F)F)C(=O)Nc1ccc(Oc2ccc(F)c(F)c2)cn1` [Compound E102, 3-[5-(3,4-difluorophenoxy)-2-pyridyl]-1-ethyl-1-[(2R)-3,3,3-trifluoro-2-hydroxy-propyl]urea], the IC50 was 10.7 nM.
Next, `C[C@H](O)CN(C)C(=O)Nc1ccc(Oc2cccc(F)c2)cn1` [Compound E103]: 1580 nM; `CC(C)N(C)C(=O)Nc1ccc(Oc2ccc(F)c(F)c2)cn1` [Compound E104]: 126 nM; `O=C(Nc1ccc(Oc2ccc(F)c(F)c2)cn1)N1CCCC1` [Compound E105]: 7940 nM.
Next, `CN(CC(F)(F)F)C(=O)Nc1ccc(Oc2ccc(F)c(F)c2)cn1` [Compound E106]: 316 nM; `CC(C)NC(=O)Nc1ccc(Oc2ccc(F)c(F)c2)cn1` [Compound E107]: 6310 nM.
Next, `CN(C(=O)Nc1ccc(Oc2ccc(F)c(F)c2)cn1)C1CC1` [Compound E108]: 631 nM; `CCN(C[C@H](C)O)C(=O)Nc1ccc(Oc2ccc(F)c(F)c2)cn1` [Compound E109]: 363 nM.
On to `CCN(C[C@@H](O)C(F)(F)F)C(=O)Nc1ccc(Oc2cncc(F)c2)cn1` [Compound E110], for which the IC50 is 5130 nM.
Consider `CN(C[C@@H](O)C(F)(F)F)C(=O)Nc1ccc(Oc2ccc(F)c(F)c2)cn1` [Compound E111], for which the IC50 is 57.5 nM.
As for `CCN(CC(C)(C)O)C(=O)Nc1ccc(Oc2ccc(F)c(F)c2)cn1` [Compound E112], the IC50 is 155 nM.
The value for `CN(C[C@H](O)C(F)(F)F)C(=O)Nc1ccc(Oc2ccc(F)c(F)c2)cn1` [Compound E113] was 575 nM; that for `CC(O)CN(CC(F)(F)F)C(=O)Nc1ccc(Oc2ccc(F)c(F)c2)cn1` (stereo not drawn) [Compound E114] was 1200 nM.
The value for `CCN(C[C@@H](O)C(F)(F)F)C(=O)Nc1ccc(Oc2ccc(C#N)cc2)cn1` [Compound E115] was 8910 nM.
The value for `CCN(C[C@@H](O)C(F)(F)F)C(=O)Nc1ccc(Oc2cc(F)cc(C#N)c2)cn1` [Compound E116] was 1350 nM; that for `CCN(C[C@@H](O)C(F)(F)F)C(=O)Nc1ccc(Oc2cc(F)cc(F)c2)cn1` [Compound E117] was 2.04 nM.
As to `CCN(C[C@@H](O)C(F)(F)F)C(=O)Nc1ccc(Oc2ccc(F)cc2)cn1` [Compound E118], the IC50 is 50.1 nM.
For the molecule `CCN(C[C@@H](O)C(F)(F)F)C(=O)Nc1ccc(Oc2cccc(F)c2)cn1` [Compound E119], the IC50 was 12.3 nM.
Next, `CCN(C[C@@H](O)C(F)(F)F)C(=O)Nc1ccc(Oc2cccc(F)c2F)cn1` [Compound E120]: 3.72 nM.
The value for `Cc1nc(NC(=O)N(C)C[C@@H](O)C(F)(F)F)ccc1Oc1ccc(F)c(F)c1` [Compound E121] was 708 nM; that for `CCN(C[C@@H](O)C(F)(F)F)C(=O)Nc1ccc(Oc2ccccc2F)cn1` [Compound E122] was 3.8 nM; that for `CCN(C[C@@H](O)C(F)(F)F)C(=O)Nc1ccc(Oc2cc(F)ccc2F)cn1` [Compound E123] was 3.39 nM.
Turning to `CC1(C)CN(C(=O)Nc2ccc(Oc3ccc(F)c(F)c3)cn2)C1` [Compound E124], the IC50 is 3240 nM.
